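Abbreviation: GI50, concentration required for 50% inhibition of growth. The concentration for full growth arrest is given as TGI.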
Tests used:
Assay in all cases: inhibition of tumour cell growth, NCI panel, 384-well format
[1] = test system: HL-60(TB) leukemia
[2] = test system: HOP-92 NSCLC
[3] = test system: HOP-62 NSCLC
[4] = test system: ACHN renal
[5] = test system: RXF 393 renal
[6] = test system: UO-31 renal
[7] = test system: SK-MEL-2 melanoma
[8] = test system: MCF7 breast
[9] = test system: SK-MEL-28 melanoma
[10] = test system: TK-10 renal
[11] = test system: CCRF-CEM leukemia
[12] = test system: SW-620 colon
[13] = test system: OVCAR-5 ovarian
[14] = test system: HCC-2998 colon
[15] = test system: UACC-257 melanoma
[16] = test system: A549 NSCLC
[17] = test system: SR leukemia
[18] = test system: HCT-15 colon
[19] = test system: SK-OV-3 ovarian
[20] = test system: NCI-H23 lung
[21] = test system: SF-268 CNS
[22] = test system: KM12 colon
[23] = test system: SNB-19 CNS
[24] = test system: MDA-MB-435 melanoma
[25] = test system: 786-0 renal
[26] = test system: NCI/ADR-RES ovarian
[27] = test system: NCI-H522 lung
[28] = test system: UACC-62 melanoma
[29] = test system: NCI-H226 lung
[30] = test system: SF-539 CNS
[31] = test system: NCI-H322M lung
[32] = test system: BT-549 breast
[33] = test system: CAKI-1 renal
[34] = test system: HCT-116 colon
[35] = test system: HT29 colon
[36] = test system: PC-3 prostate
[37] = test system: A498 renal
[38] = test system: DU-145 prostate
[39] = test system: K-562 leukemia
[40] = test system: SN12C renal
[41] = test system: OVCAR-3 ovarian
[42] = test system: SK-MEL-5 melanoma
[43] = test system: RPMI-8226 leukemia
[44] = test system: MDA-MB-468 breast
[45] = test system: NCI-H460 NSCLC
[46] = test system: T-47D breast
[47] = test system: OVCAR-8 ovarian
[48] = test system: U251 glioblastoma
[49] = test system: MOLT-4 leukemia
[50] = test system: M14 melanoma
[51] = test system: COLO 205 colon
[52] = test system: OVCAR-4 ovarian
[53] = test system: MALME-3M melanoma
[54] = test system: MDA-MB-231 breast
[55] = test system: SF-295 CNS
[56] = test system: LOX IMVI melanoma
[57] = test system: IGROV1 ovarian

SMILES: CCN(c1cc(C#CCN2CCOCC2)cc(C(=O)NCc2c(C)cc(C)[nH]c2=O)c1C)C1CCC(N(C)CCOC)CC1 (centres undefined)
- GI50 [1]: > 100 µM
- TGI [1]: > 100 µM
- GI50 [2]: 2.55 µM
- TGI [2]: 34.7 µM
- GI50 [3]: 67.2 µM
- TGI [3]: > 100 µM
- GI50 [4]: > 100 µM
- TGI [4]: > 100 µM
- GI50 [5]: 3.37 µM
- TGI [5]: > 100 µM
- GI50 [6]: > 100 µM
- TGI [6]: > 100 µM
- GI50 [7]: 72.9 µM
- TGI [7]: > 100 µM
- GI50 [8]: > 100 µM
- TGI [8]: > 100 µM
- GI50 [9]: > 100 µM
- TGI [9]: > 100 µM
- GI50 [10]: > 100 µM
- TGI [10]: > 100 µM
- GI50 [11]: 4.63 µM
- TGI [11]: 21.4 µM
- GI50 [12]: > 100 µM
- TGI [12]: > 100 µM
- GI50 [13]: > 100 µM
- TGI [13]: > 100 µM
- GI50 [14]: 8.42 µM
- TGI [14]: 92.5 µM
- GI50 [15]: > 100 µM
- TGI [15]: > 100 µM
- GI50 [16]: > 100 µM
- TGI [16]: > 100 µM
- GI50 [17]: 82.8 µM
- TGI [17]: > 100 µM
- GI50 [18]: > 100 µM
- TGI [18]: > 100 µM
- GI50 [19]: > 100 µM
- TGI [19]: > 100 µM
- GI50 [20]: > 100 µM
- TGI [20]: > 100 µM
- GI50 [21]: > 100 µM
- TGI [21]: > 100 µM
- GI50 [22]: > 100 µM
- TGI [22]: > 100 µM
- GI50 [23]: > 100 µM
- TGI [23]: > 100 µM
- GI50 [24]: > 100 µM
- TGI [24]: > 100 µM
- GI50 [25]: > 100 µM
- TGI [25]: > 100 µM
- GI50 [26]: > 100 µM
- TGI [26]: > 100 µM
- GI50 [27]: 32.8 µM
- TGI [27]: > 100 µM
- GI50 [28]: 51.3 µM
- TGI [28]: > 100 µM
- GI50 [29]: 55.9 µM
- TGI [29]: > 100 µM
- GI50 [30]: > 100 µM
- TGI [30]: > 100 µM
- GI50 [31]: > 100 µM
- TGI [31]: > 100 µM
- GI50 [32]: > 100 µM
- TGI [32]: > 100 µM
- GI50 [33]: > 100 µM
- TGI [33]: > 100 µM
- GI50 [34]: > 100 µM
- TGI [34]: > 100 µM
- GI50 [35]: > 100 µM
- TGI [35]: > 100 µM
- GI50 [36]: > 100 µM
- TGI [36]: > 100 µM
- GI50 [37]: 91.1 µM
- TGI [37]: > 100 µM
- GI50 [38]: > 100 µM
- TGI [38]: > 100 µM
- GI50 [39]: > 100 µM
- TGI [39]: > 100 µM
- GI50 [40]: > 100 µM
- TGI [40]: > 100 µM
- GI50 [41]: 40.6 µM
- TGI [41]: > 100 µM
- GI50 [42]: > 100 µM
- TGI [42]: > 100 µM
- GI50 [43]: 0.0254 µM
- TGI [43]: 0.193 µM
- GI50 [44]: 58.4 µM
- TGI [44]: > 100 µM
- GI50 [45]: > 100 µM
- TGI [45]: > 100 µM
- GI50 [46]: > 100 µM
- TGI [46]: > 100 µM
- GI50 [47]: > 100 µM
- TGI [47]: > 100 µM
- GI50 [48]: > 100 µM
- TGI [48]: > 100 µM
- GI50 [49]: 1.45 µM
- TGI [49]: 3.55 µM
- GI50 [50]: > 100 µM
- TGI [50]: > 100 µM
- GI50 [51]: > 100 µM
- TGI [51]: > 100 µM
- GI50 [52]: 51.4 µM
- TGI [52]: > 100 µM
- GI50 [53]: > 100 µM
- TGI [53]: > 100 µM
- GI50 [54]: 24.1 µM
- TGI [54]: > 100 µM
- GI50 [55]: > 100 µM
- TGI [55]: > 100 µM
- GI50 [56]: > 100 µM
- TGI [56]: > 100 µM
- GI50 [57]: > 100 µM
- TGI [57]: > 100 µM

Source: PubChem BioAssay (NCI)
